Tests used:
P. vinckei = format: in vivo, A/J mice; settings: for protection against heterologous challenge: 3 doses of 10^6 P. chabaudi pRBC (ring stages) i.v. 2 weeks apart, compound 2 μM, 40 minutes, 37° C., challenge 10^4 P. vinckei (FIG. 7B)
P. chabaudi [1] = format: in vivo, A/J mice; settings: for protection against homologous challenge: 3 doses of 10^6 pRBC (ring stages) i.v. 2 weeks apart, compound 2 μM, 40 minutes, 37° C., challenge 10^5 P. chabaudi (FIG. 7A)
P. chabaudi [2] = settings: 500 μL blood of mice immunized with 10^7 centanamycin (2 μM or 200 nM) attenuated pRBC taken at day 42 post-innoculation, transferred to naïve reporter mice

COc1cc2cc(C(=O)Nc3cc(O)c4ncc(C)cc4c3CCCl)[nH]c2c(OC)c1OC [AS-VIII-104]
protection against heterologous challenge (P. vinckei): performed similarly to centanamycin

COc1cc2cc(C(=O)Nc3cc(N)c4ccccc4c3CCCl)[nH]c2c(OC)c1OC [centanamycin]
parasitaemia by day 11 post-challenge (P. chabaudi [1]; 3 doses of 10^4, 10^5 or 10^6 pRBC, each group, centanamycin 2 μM (FIG. 4)): little or no parasitaemia | protection against homologous challenge (P. chabaudi [1]): lower | parasitaemia compared between dose groups, e.g. at day 9 post-challenge (P. chabaudi [1]; 3 doses of 10^6 pRBC versus 10^4 and 10^5, centanamycin 2 μM (FIG. 4)): lowest | vaccination efficacy, 200 nM attenuation (P. chabaudi [1]; 3 doses or a single dose of 10^4 P. chabaudi pRBC treated with 200 nM centanamycin (FIG. 3)): effectively vaccinated | vaccine efficacy, 3 doses (P. chabaudi [1]; centanamycin attenuated P. chabaudi pRBC, 3 doses of vaccine): work effectively | clinical score data (P. chabaudi [1]; immunization with 10^6 centanamycin-treated parasites and challenge (FIG. 6)): protected not only from death and high parasitemia but also from symptoms | immunity to virulent challenge (parasitemia) (P. chabaudi [1]; pRBC treated in vitro with 2 μM centanamycin, 5 doses i.v. 1 week apart, 10^4 parasites each, challenge 10^5 homologous WT pRBC): induces immunity to virulent challenge | protection, single dose (P. chabaudi [1]; single dose of 10^4 pRBC, centanamycin 2 μM, challenge 10^5 pRBC 35 days after vaccination (FIG. 2)): induces protection in most animals | parasitaemia at day 8 and 9 post-challenge versus 2 μM attenuated parasites (P. chabaudi [1]; single dose of 10^7 pRBC attenuated using 200 nM centanamycin (FIG. 5)): more significant parasitaemia | recovery by day 13 post-innoculation (P. chabaudi [1]; single dose of 10^7 pRBC attenuated using 200 nM centanamycin, compared with 2 μM (FIG. 5)): recovered to the same extent | parasites detected by microscopy (P. chabaudi [2]): no parasites detected

COc1cc2cc(C(=O)N3CC(CCl)c4c3cc(O)c3ccoc43)[nH]c2c(OC)c1OC (stereo not shown) [tafuramycin A, seco-iso-cyclopropylfurano[2,3-e]indoline-TMI]
protection against homologous challenge (P. chabaudi [1]): near complete protection | peak parasite density (P. vinckei; 1 mouse of the group, P. vinckei challenge): approximately 20% | protection against heterologous challenge (P. vinckei): very significant protection | recovery by day 12 (P. vinckei; P. vinckei challenge, all animals): all the animals had fully recovered

— patent US9539316B2, “Blood stage malaria vaccine” (priority 2011, dated 2017)
